Experimental data taken from patent US11752196B2, “Treatment of pyroptosis” (priority 2018, dated 2023).

Tested on: GSDMD cleavage in Huh7 hepatocytes
Test: LPS-induced pyroptosis (GSDMD cleavage) in Huh7 hepatocytes pre-treated with tunicamycin and/or very low-dose LPS
Type: cell-based, Human
Conditions: tunicamycin and/or LPS 1 μg/ml for 24 hours, then LPS 30 μg/ml
Experimental: FIG. 13—LPS-dependent pyroptosis in hepatocytes and priming by ER stress.
All measurements were performed in triplicate.
In addition to hepatocyte ER stress, increased levels of circulating endotoxin are detected in advanced liver disease. Therefore, to determine the importance of hepatocyte ER stress and low-level endotoxin exposure as mediators of upregulation of the caspase-4/11 pathway, Huh7 hepatocytes were pre-treated with the ER stress inducer, tunicamycin and/or very low-dose LPS (1 μg/ml) for 24 hours, prior to the LPS ‘hit’ (30 μg/ml) (FIG. 13). […] Importantly, in these experiments hepatocyte pyroptosis was independent of the TLR4 pathway, as GSDMD cleavage was not inhibited by the TLR4 antagonist TAK-242. Caspase-11 deficient mice are protected from hepatic and extra-hepatic organ injury in ACLF Casp11^−/− mice are deficient in the caspase-11 pathway, but the caspase-1 pathway remains intact. Casp11^−/− mice develop a similar level of advanced fibrosis/cirrhosis compared to wildtype (wt) after treatment with 20 doses of CCl4 (FIG. 14A).

CCOC(=O)C1=CCCC[C@H]1S(=O)(=O)Nc1ccc(F)cc1Cl [TAK-242]
GSDMD cleavage (inhibition by TLR4 antagonist): not inhibited
